# In publication PMC6950716, “Bioactive Secondary Metabolites from the Culture of the Mangrove-Derived Fungus Daldinia eschscholtzii HJ004” (Marine Drugs, 2019):
# Biological target: α-glucosidase
# Assay: α-glucosidase inhibition assay in 96-well plates (modified Sawada et al.)
# Assay type: biochemical
row,SMILES,IC50
1,"COC1=CC(=O)c2c(cc3c(c2O)COC3)C1=O [compound 4, 5-hydroxy-2-methoxynaphtho[9–c]furan-1,4-dione]",5.7 µg/mL
2,"COc1cccc2cc(C(C)=O)oc12 [compound 7, 2-acetyl-7-methoxybenzofuran]",1.1 µg/mL
